Laboratory results taken from patent publication US9796726B2, “Dihydroquinoline pyrazolyl compounds” (Hoffmann-La Roche Inc., priority 2014, dated 2017).
pEC50: −log10 of the molar value.

Key:
[1] = molecular target: T1, human CYP11B1 (Homo sapiens, UniProt P15538); experiment: G-402 cellular enzyme assay, human CYP11B1 (cortisol release, HTRF); format: cell-based; conditions: stable G-402 cells expressing human CYP11B1; 1 μM Deoxycortisol; 16 h
T1 construct: The expression plasmids contains the ORF for either human/cyno CYP11B1 or CYP11B2; expressed in transfected cells
T1 sequence (P15538 25-503): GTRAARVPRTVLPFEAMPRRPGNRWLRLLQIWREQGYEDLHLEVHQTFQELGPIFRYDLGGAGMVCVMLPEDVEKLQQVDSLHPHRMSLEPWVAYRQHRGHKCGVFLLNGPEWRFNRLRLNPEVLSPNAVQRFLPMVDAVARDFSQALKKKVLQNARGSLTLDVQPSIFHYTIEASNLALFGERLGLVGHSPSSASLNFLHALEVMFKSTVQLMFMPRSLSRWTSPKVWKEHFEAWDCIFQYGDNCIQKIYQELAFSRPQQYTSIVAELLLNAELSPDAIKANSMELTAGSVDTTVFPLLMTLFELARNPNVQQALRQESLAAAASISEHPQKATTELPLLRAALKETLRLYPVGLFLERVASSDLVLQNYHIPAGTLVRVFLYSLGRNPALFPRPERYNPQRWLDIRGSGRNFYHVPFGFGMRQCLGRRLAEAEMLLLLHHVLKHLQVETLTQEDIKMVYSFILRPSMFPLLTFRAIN
Description: Herein we identified the use of the G-402 cell line as a host cell to ectopically express (transiently or stably) enzymes of the CYP11 family. Specifically we developed stable G-402 cells expressing ectopically human CYP11B1, human CYP11B2, human CYP11A1, cynmolgus CYP11B1 or cynomolgus CYP11B2 enzyme activity. Importantly the identified cell line G-402 expresses co-factors (adrenodoxin and adrenodoxin reductase) important for the activity of the CYP11 family and no relevant enzyme activity of the CYP11 family (in comparison to H295R cells) was detected in these cells. Therefore the G-402 cell line is uniquely suited as a host cell for the ectopic expression of enzymes from the CYP11 family.
G-402 cells can be obtained from ATCC (CRL-1440) and were originally derived from a renal leiomyoblastoma.
The expression plasmids contains the ORF for either human/cyno CYP11B1 or CYP11B2 under the control of a suitable promoter (CMV-promoter) and a suitable resistance marker (neomycin). Using standard techniques the expression plasmid is transfected into G-402 cells and these cells are then selected for expressing the given resistance markers. Individual cell-clones are then selected and assessed for displaying the desired enzymatic activity using 11-Deoxycorticosterone (Cyp11B2) or 11-Deoxycortisol (Cyp11B1) as a substrate.
G-402 cells expressing CYP11 constructs were established as described above and maintained in McCoy's 5a Medium Modified, ATCC Catalog No. 30-2007 containing 10% FCS and 400 μg/ml G418 (Geneticin) at 37° C. under an atmosphere of 5% CO2/95% air. Cellular enzyme assays were performed in DMEM/F12 medium containing 2.5% charcoal treated FCS and appropriate concentration of substrate (0.3-10 uM 11-Deoxycorticosterone, 11-Deoxycortisol or Corticosterone). For assaying enzymatic activity, cells were plated onto 96 well plates and incubated for 16 h. An aliquot of the supernatant is then transferred and analyzed for the concentration of the expected product (Aldosterone for CYP11B2; Cortisol for CYP11B1). The concentrations of these steroids can be determined using HTRF assays from CisBio analyzing either Aldosterone or Cortisol.
Inhibition of the release of produced steroids can be used as a measure of the respective enzyme inhibition by test compounds added during the cellular enzyme assay. The dose dependent inhibition of enzymatic activity by a compound is calculated by means of plotting added inhibitor concentrations (x-axes) vs. measured steroid/product level (y-axes). The inhibition is then calculated by fitting the following 4-parameter sigmoidal function (Morgan-Mercer-Flodin (MMF) model) to the raw data points using the least squares method:
[formula] wherein, A is the maximum y value, B is the EC50 factor determined using XLFit, C is the minimum y value and D is the slope value.
EC50 values for compounds claimed herein were tested with the G402-based assay system described. Cyp11B2 enzyme activity was tested in presence of 1 μM Deoxycorticosterone and variable amounts of inhibitors; Cyp11B1 enzyme activity was tested in presence of 1 μM Deoxycortisol and variable amounts of inhibitors.

[2] = rat, cited from earlier work; for plasma aldosterone: FAD286 following 4 weeks of treatment, spironolactone at 4 and 8 weeks
[3] = molecular target: CYP11B2 (Homo sapiens, UniProt P19099); conditions: patients with primary aldosteronism, cited from earlier work
CYP11B2, sequence (P19099 25-503): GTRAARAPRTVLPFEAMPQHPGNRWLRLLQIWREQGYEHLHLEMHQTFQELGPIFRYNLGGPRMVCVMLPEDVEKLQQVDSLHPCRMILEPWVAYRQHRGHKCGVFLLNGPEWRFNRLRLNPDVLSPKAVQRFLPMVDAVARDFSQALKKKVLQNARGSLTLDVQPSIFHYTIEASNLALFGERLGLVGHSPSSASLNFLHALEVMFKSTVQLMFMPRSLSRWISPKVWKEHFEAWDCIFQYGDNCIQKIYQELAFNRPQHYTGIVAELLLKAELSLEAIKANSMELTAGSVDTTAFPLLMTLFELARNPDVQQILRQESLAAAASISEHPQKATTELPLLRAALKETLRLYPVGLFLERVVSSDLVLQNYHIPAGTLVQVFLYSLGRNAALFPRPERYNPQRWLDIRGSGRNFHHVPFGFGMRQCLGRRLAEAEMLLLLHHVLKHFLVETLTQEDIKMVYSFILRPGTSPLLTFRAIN

SMILES | pEC50 [1] | other results
N#Cc1ccc(C2CCCc3cncn32)cc1 (centres unmarked) [FAD286] | – | plasma aldosterone [2]: reduced
CN1C(=O)CCc2cc(-c3[nH]ncc3CN3CC4(C3)CN(C(=O)c3nccn3C)C4)ccc21 [Example 63, 1-Methyl-6-[4-[[2-(1-methylimidazole-2-carbonyl)-2,6-diazaspiro[3.3]heptan-6-yl]methyl]-1H-pyrazol-3-yl]-3,4-dihydroquinolin-2-one] | < 7.52 | –
CN1C(=O)CCc2cc(-c3[nH]ncc3CN3CC4(C3)CN(C(=O)c3ncccc3Cl)C4)ccc21 [Example 64, 6-[4-[[2-(3-Chloropyridine-2-carbonyl)-2,6-diazaspiro[3.3]heptan-6-yl]methyl]-1H-pyrazol-3-yl]-1-methyl-3,4-dihydroquinolin-2-one] | < 7.52 | –
CC(=O)S[C@@H]1CC2=CC(=O)CC[C@]2(C)[C@H]2CC[C@@]3(C)[C@@H](CC[C@@]34CCC(=O)O4)[C@H]12 [spironolactone] | – | plasma aldosterone [2]: increased; angiotensin II and salt-stimulated PAI-1 mRNA expression in the aorta and the heart [2]: enhanced
CCS(=O)(=O)N1CC2(CN(Cc3cn[nH]c3-c3ccc4c(c3)CCC(=O)N4C)C2)C1 [Example 56, 6-[4-[(2-Ethylsulfonyl-2,6-diazaspiro[3.3]heptan-6-yl)methyl]-1H-pyrazol-3-yl]-1-methyl-3,4-dihydroquinolin-2-one] | < 7.52 | –
CC(=O)N1CC2(CN(Cc3cn[nH]c3-c3ccc4c(c3Cl)CCC(=O)N4C)C2)C1 [Example 59, 6-[4-[(2-Acetyl-2,6-diazaspiro[3.3]heptan-6-yl)methyl]-1H-pyrazol-3-yl]-5-chloro-1-methyl-3,4-dihydroquinolin-2-one] | < 7.52 | –
N#Cc1ccc([C@H]2CCc3cncn32)c(F)c1 [LCI699] | – | blood pressure [3]: mildly decreased; hypokalemia [3]: corrected; selectivity (effects on the glucocorticoid axis) [3]: poor selectivity; circulating aldosterone levels ([3]; oral): significantly lower
CCS(=O)(=O)N1CC2(CN(Cc3c[nH]nc3-c3ccc4c(c3Cl)CCC(=O)N4C)C2)C1 [Example 54, 5-Chloro-6-[4-[(2-ethylsulfonyl-2,6-diazaspiro[3.3]heptan-6-yl)methyl]-1H-pyrazol-3-yl]-1-methyl-3,4-dihydroquinolin-2-one] | < 7.52 | –

Second part, led by results:

pEC50 [1] | SMILES | other results
< 7.52 | CCS(=O)(=O)N1CC2(CN(Cc3cn[nH]c3-c3cc(Cl)c4c(c3)CCC(=O)N4C)C2)C1 [Example 62, 8-Chloro-6-[4-[(2-ethylsulfonyl-2,6-diazaspiro[3.3]heptan-6-yl)methyl]-1H-pyrazol-3-yl]-1-methyl-3,4-dihydroquinolin-2-one] | –
< 7.52 | CN1C(=O)CCc2cc(-c3n[nH]cc3CN3CCN(C(=O)c4cnn(C)c4)CC3)cc(Cl)c21 [Example 44, 8-Chloro-1-methyl-6-[4-[[4-(1-methylpyrazole-4-carbonyl)piperazin-1-yl]methyl]-1H-pyrazol-3-yl]-3,4-dihydroquinolin-2-one] | –
< 7.52 | CN1C(=O)CCc2c1ccc(-c1n[nH]cc1CN1CC3(C1)CN(C(=O)c1cnn(C)c1)C3)c2Cl [Example 53, 5-Chloro-1-methyl-6-[4-[[2-(1-methylpyrazole-4-carbonyl)-2,6-diazaspiro[3.3]heptan-6-yl]methyl]-1H-pyrazol-3-yl]-3,4-dihydroquinolin-2-one] | –
< 7.52 | CN1C(=O)CCc2cc(-c3[nH]ncc3CN3CC4(C3)CN(C(=O)c3cnn(C)c3)C4)cc(Cl)c21 [Example 60, 8-Chloro-1-methyl-6-[4-[[2-(1-methylpyrazole-4-carbonyl)-2,6-diazaspiro[3.3]heptan-6-yl]methyl]-1H-pyrazol-3-yl]-3,4-dihydroquinolin-2-one] | –
< 7.52 | CC(=O)N1CCN(Cc2c[nH]nc2-c2ccc3c(c2)CCC(=O)N3C)C[C@H]1C [Example 49, (−)-6-[4-[[(3R)-4-Acetyl-3-methyl-piperazin-1-yl]methyl]-1H-pyrazol-3-yl]-1-methyl-3,4-dihydroquinolin-2-one] | –
